Measurements published in paper PMC5651862 (Scientific Reports, 2017).

Assays:
[1] = Resazurin conversion assay (cytotoxicity); format: cell-based; settings: human, HEK293 cells, HEK293, vs DMSO 0.1%, read-out: cell viability
Protocol: Assessment of cytotoxicity […]
on cell viability assessed by the resazurin conversion assay in HEK293 cells. HEK293 cells were […]
conversion was measured after 4 hours. Results are expressed as % cell viability compared to the solvent control DMSO (0.1%). Data are expressed as means ± SD of three independent experiments performed in quadruplicate. (One-way ANOVA, Dunnett´s test, p<0.01**). […]
resofurin. Conversion of this non-fluorescent agent to resofurin depends on redox equivalents provided by cellular metabolism. Thus, the conversion (fluorescence signal) is direct proportional to the number of viable cells and thus to cell viability. HEK293 cells (ATCC, Manassas, VA) were seeded in 96-well plates at a density of 40,000 cells per well and incubated for 24 hours in DMEM supplemented with 2 mM glutamine, 100 U/ml benzylpenicillin, 100 μg/ml streptomycin, and 10% fetal bovine serum. Next day, cells were incubated with increasing concentrations of the indicated […]
After 24 hours of incubation with the test compounds cells were washed again in PBS and then incubated with 10 μg/mL resazurin […]
solution in PBS. After 4 hours plates were read on a Tecan GeniosPro plate reader using an excitation wavelength of 535 nm and an emission wavelength of 580 nm. […]

full-length human PPARγ = biological target: T1, full-length human PPARγ (Homo sapiens, UniProt P37231); assay: PPARγ-dependent luciferase reporter gene transactivation in HEK293 cells
T1 sequence (P37231 1-477 isoform P37231-2): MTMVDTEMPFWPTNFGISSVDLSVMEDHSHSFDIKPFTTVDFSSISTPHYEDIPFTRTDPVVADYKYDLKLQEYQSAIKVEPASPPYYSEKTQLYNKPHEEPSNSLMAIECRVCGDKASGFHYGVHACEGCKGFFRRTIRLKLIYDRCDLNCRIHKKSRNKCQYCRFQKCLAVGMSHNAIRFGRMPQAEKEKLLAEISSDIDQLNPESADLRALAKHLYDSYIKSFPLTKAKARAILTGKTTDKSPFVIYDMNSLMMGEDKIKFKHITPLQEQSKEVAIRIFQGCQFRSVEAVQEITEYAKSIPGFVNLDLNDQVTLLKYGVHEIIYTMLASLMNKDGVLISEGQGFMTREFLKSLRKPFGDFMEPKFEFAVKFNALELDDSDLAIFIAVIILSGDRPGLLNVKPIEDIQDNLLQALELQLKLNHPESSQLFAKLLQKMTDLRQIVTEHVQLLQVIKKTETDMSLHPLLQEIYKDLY

purified human PPARγ LBD = biological target: T2, purified human PPARγ LBD (Homo sapiens, UniProt P37231); assay: LanthaScreen TR-FRET PPARγ competitive binding assay
T2 construct: purchased Invitrogen
T2 sequence (P37231 238-503 limits assumed): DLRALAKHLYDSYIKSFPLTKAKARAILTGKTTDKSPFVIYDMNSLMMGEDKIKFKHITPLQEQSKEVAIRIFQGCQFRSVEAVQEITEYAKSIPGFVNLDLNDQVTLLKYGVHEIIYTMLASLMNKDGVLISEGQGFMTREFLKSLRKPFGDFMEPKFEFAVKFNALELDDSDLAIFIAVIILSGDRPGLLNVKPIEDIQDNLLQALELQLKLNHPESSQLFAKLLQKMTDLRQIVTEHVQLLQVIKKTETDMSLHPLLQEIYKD
Protocol: In this assay a fluorescently labeled ligand (Fluormone, Invitrogen) is displaced upon binding of the tested compound leading to a decrease in the FRET signal. Binding to the receptor was assessed in a concentration-dependent manner. […] Compounds that bind to the PPARγ LBD displace the fluorescently labeled ligand […]. […] Data points are represented as mean ± SEM from four independent experiments performed in duplicate. […] HEK-293 cells were transfected as described in the Methods section and stimulated for 18 h, as indicated. Luciferase activity was normalized to EGFP-derived fluorescence. Results are expressed as fold induction compared with the solvent control (DMSO, 0.1%). EC50 values were calculated using a sigmoidal curve fit with variable slope. […] HEK293 cells were transfected as described in the Methods section, treated as indicated for 18 h and luciferase activity measured as under (A). All data are shown as means ± SD of at least three independent experiments performed in quadruplicate. […] The compounds were dissolved in DMSO (solvent vehicle) and incubated together with the human PPARγ LBD tagged with GST, terbium-labeled anti-GST antibody and fluorescently labeled PPAR ligand (Fluormone™ Pan-PPAR Green). Binding of a ligand results in a fluorescence resonance energy transfer (FRET) after excitation of terbium at 340 nm and in an emission at 520 nm. Test compounds binding to the human PPARγ LBD are competing with the fluorescently labeled ligand and displacing it, resulting in a decrease of the FRET signal. […] All quantifications were performed with a GeniosPro plate reader (Tecan).
To calculate the EC50 values data were curve fitted and non-linear transformed using a sigmoidal dose response with variable slope.

full-length human RXRα = biological target: T3, full-length human RXRα (Homo sapiens, UniProt P19793); assay: RXRα-dependent luciferase reporter gene transactivation in HEK293 cells; settings: HEK293, 18 h, up to 10 µM
T3 sequence (P19793 1-462): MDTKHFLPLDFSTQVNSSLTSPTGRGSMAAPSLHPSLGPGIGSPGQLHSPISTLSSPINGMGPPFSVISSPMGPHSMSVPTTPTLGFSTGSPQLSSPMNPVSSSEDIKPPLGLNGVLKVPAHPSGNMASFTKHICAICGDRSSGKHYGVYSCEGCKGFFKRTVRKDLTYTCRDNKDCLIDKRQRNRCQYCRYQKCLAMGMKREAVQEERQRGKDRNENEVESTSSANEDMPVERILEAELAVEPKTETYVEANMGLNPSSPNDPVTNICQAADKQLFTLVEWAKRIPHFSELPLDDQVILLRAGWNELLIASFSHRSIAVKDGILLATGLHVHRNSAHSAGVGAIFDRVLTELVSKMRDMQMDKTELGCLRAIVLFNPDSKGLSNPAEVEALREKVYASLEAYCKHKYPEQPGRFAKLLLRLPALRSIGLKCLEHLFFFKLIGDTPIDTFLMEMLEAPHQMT

PPARγ/RXRα heterodimer = biological target: T4, PPARγ/RXRα heterodimer (Homo sapiens, UniProt P19793+P37231); assay: PPARγ/RXRα heterodimer-induced luciferase reporter transactivation in co-transfected HEK293 cells; format: cell-based; settings: 18 h
T4 construct: transfected with 6 μg of full-length human PPARγ and full-length human RXRα expression plasmid, respectively or both; expressed in transfected cells; host or cells: HEK293
T4 sequence (P37231 1-477 isoform P37231-2): T1 sequence (P37231 1-477 isoform P37231-2)
T4 sequence (P19793 1-462): T3 sequence (P19793 1-462)
From the text: Luciferase activity was normalized to EGFP-derived fluorescence.

3T3-L1 preadipocytes = assay: Adipocyte differentiation in 3T3-L1 pre-adipocytes (Oil Red O); format: cell-based; settings: 1–10 µM, 8 days, insulin 1 µg/mL
Protocol: PPARγ plays a major role in adipocyte differentiation and in the regulation of adipose-related genes that are involved in developing the adipose phenotype. […]
solution in PBS. After 4 hours plates were read on a Tecan GeniosPro plate reader using an excitation wavelength of 535 nm and an emission wavelength of 580 nm.
Adipocyte differentiation in 3T3-L1 cells
Insulin control Rosiglitazone (1 µM) […]
dimer (1). 3T3-L1 cells were incubated in medium containing insulin (1 µg/mL) for 8 days with or […]
µM) was used as positive control. The medium was exchanged every second day. At day 8, cells were fixed in 10% formaldehyde, stained with Oil Red O and photographed (A). Oil Red O was then […]
solubilized and quantified at 550 nm using a plate reader (B). Lipid accumulation is expressed as fold increase compared to the insulin/solvent control (1 µg/mL insulin in 0.1 % DMSO) and is expressed as means ± SD of three independent experiments (One-way ANOVA, Bonfferoni post test, p<0.05 *). […]
Medium was exchanged every second day. After eight days, lipid accumulation (as a measure of adipogenic differentiation) was determined by Oil Red O staining as described previously.5 For this, cells were fixed in 10% formaldehyde for 1 h and stained with Oil Red O for 10 minutes. […]

Compound | viability at 24 h, 10 µM [1] | viability at 24 h, 30 µM [1] | EC50 (full-length human PPARγ) | Emax PPARγ-dependent luciferase transactivation (full-length human PPARγ; HEK293, 18 h, Emax values ± SD, results as fold induction vs DMSO) | efficacy compared to pioglitazone (full-length human PPARγ; HEK293, Emax relative to full agonist pioglitazone) | fold lower potency compared to magnolol (full-length human PPARγ; ratio of EC50 values) | Ki (purified human PPARγ LBD; competitive displacement of Fluormone Pan-PPAR Green, Cheng-Prusoff, four independent experiments in duplicate) | fold higher affinity to human PPARγ LBD compared to magnolol (purified human PPARγ LBD; ratio of Ki values) | fold higher affinity to human PPARγ LBD compared to pioglitazone (purified human PPARγ LBD; ratio of Ki values) | RXRα-dependent luciferase gene expression (result in words) (full-length human RXRα) | RXRα-dependent luciferase gene expression (result in words) (full-length human RXRα; listed as the dimer) | fold activation of PPARγ/RXRα heterodimer, co-treatment with bexarotene (PPARγ/RXRα heterodimer; 10 µM compound plus full RXR agonist bexarotene, HEK293 co-transfected) | fold activation of PPARγ/RXRα heterodimer (PPARγ/RXRα heterodimer; 10 µM, HEK293 co-transfected with PPARγ and RXRα, vs DMSO 0.2%) | adipocyte differentiation (result in words) (3T3-L1 preadipocytes)
C=CCc1ccc(O)c(-c2cc(CC=C)ccc2O)c1 [magnolol, reference compound] | ≥ 90% | 9.1 ± 9.05% |  |  |  |  |  |  |  |  |  |  |  | 
C=CCc1ccc(O)c(-c2cc(CC=CCCCc3cc(O)c(-c4cc(CC=C)ccc4O)cc3CC=C)ccc2O)c1 [magnolol dimer (1)] | ≥ 90% | 22.7 ± 5.35% | 1520 nM | 4.67 ± 0.26 | around 62% | about 1.5 fold | 5.03 nM | more than 12 fold | more than 16 fold | does not activate RXRα-dependent luciferase gene expression | did not transactivate RXRα-dependent luciferase gene expression | 13.20 ± 3.98 fold | 3.82 ± 1.22 fold | induces adipocyte differentiation
